System: MOLT-4 cells
Experiment: MOLT-4 Cell Proliferation Assay (CellTiter-Glo)
Assay type: cell-based
Conditions: Homo sapiens, 72 h, read-out: MOLT-4 CTG IC50
Description: Cell proliferation was measured using the CellTiter-Glo® Luminescent Cell Viability Assay. The assay involved the addition of a single reagent (CellTiter-Glo® Reagent) directly to cells cultured in serum-supplemented medium. MOLT-4 cells (ATCC, CRL-1582) were cultured according to ATCC recommendations and were seeded at 50,000 cells per well.
Each compound evaluated was prepared as a DMSO stock solution (10 mM). Compounds were tested in duplicate on each plate, with a 10-point serial dilution curve (1:3 dilution). The highest compound concentration was 10 μM (final), with a 0.1% final DMSO concentration. Plates were then incubated at 37° C., 5% CO2 for 72 h, cell plates were equilibrated at rt for approximately 30 mins. An equi-volume amount of CellTiter-Glo® Reagent (100 μL) was added to each well. Plates were mixed for 2 mins on an orbital shaker to induce cell lysis and then incubated at rt for 10 mins to stabilize the luminescent signal. Luminescence was recorded using a Envision plate reader according to CellTiter-Glo protocol. IC50 of each compound was calculated using GraphPad Prism by nonlinear regression analysis.

SMILES | IC50 [nM]
CC1(C)CCC(c2ccc(Cl)cc2)=C(CN2CCN(c3ccc(C(=O)NS(=O)(=O)c4ccc(N[C@H](CCN5CCOCC5)CSc5ccccc5)c(S(=O)(=O)C(F)(F)F)c4)cc3)CC2)C1 [ABT-263, navitoclax, reference compound] | 50 to 150
Cc1ncsc1-c1ccc([C@H](C)NC(=O)[C@@H]2C[C@@H](O)CN2C(=O)[C@@H](NC(=O)CCCCC(=O)N2CCN(CC[C@H](CSc3ccccc3)Nc3ccc(S(=O)(=O)NC(=O)c4ccc(N5CCN(CC6=C(C78CC(C(F)F)(C7)C8)CC(C)(C)CC6)CC5)cc4)cc3S(=O)(=O)C(F)(F)F)CC2)C(C)(C)C)cc1 [Example 1, (2S,4R)-1-((S)-2-(6-(4-((R)-3-((4-(N-(4-(4-((2-(3-(difluoromethyl)bicyclo[1.1.1]pentan-1-yl)-4,4-dimethylcyclohex-1-en-1-yl)methyl)piperazin-1-yl)benzoyl)sulfamoyl)-2-((trifluoromethyl)sulfonyl)phenyl)amino)-4-(phenylthio)butyl)piperazin-1-yl)-6-oxohexanamido)-3,3-dimethylbutanoyl)-4-hydroxy-N—((S)-1-(4-(4-methylthiazol-5-yl)phenyl)ethyl)pyrrolidine-2-carboxamide] | ≥ 150
CC1(C)CCC(CN2CCN(c3ccc(C(=O)NS(=O)(=O)c4ccc(N[C@H](CCN5CCN(CCCCCOc6cccc7c6C(=O)N(C6CCC(=O)NC6=O)C7=O)CC5)CSc5ccccc5)c(S(=O)(=O)C(F)(F)F)c4)cc3)CC2)=C(C23CC(C(F)F)(C2)C3)C1 (stereo partly drawn) [Example 3, 4-(4-((2-(3-(difluoromethyl)bicyclo [1.1.1]pentan-1-yl)-4,4-dimethylcyclohex-1-en-1-yl)methyl)piperazin-1-yl)-N-((4-(((2R)-4-(4-(5-((2-(2,6-dioxopiperidin-3-yl)-1,3-dioxoisoindolin-4-yl)oxy)pentyl)piperazin-1-yl)-1-(phenylthio)butan-2-yl)amino)-3-((trifluoromethyl)sulfonyl)phenyl)sulfonyl)benzamide] | ≤ 50
CC1(C)CCC(CN2CCN(c3ccc(C(=O)NS(=O)(=O)c4ccc(N[C@H](CCN5CCN(CCCCCNc6ccc7c(c6)C(=O)N(C6CCC(=O)NC6=O)C7=O)CC5)CSc5ccccc5)c(S(=O)(=O)C(F)(F)F)c4)cc3)CC2)=C(C23CC(C(F)F)(C2)C3)C1 (stereo partly drawn) [Example 4, 4-(4-((2-(3-(difluoromethyl)bicyclo[1.1.1]pentan-1-yl)-4,4-dimethylcyclohex-1-en-1-yl)methyl)piperazin-1-yl)-N-((4-(((2R)-4-(4-(5-((2-(2,6-dioxopiperidin-3-yl)-1,3-dioxoisoindolin-5-yl)amino)pentyl)piperazin-1-yl)-1-(phenylthio)butan-2-yl)amino)-3-((trifluoromethyl)sulfonyl)phenyl)sulfonyl)benzamide] | 50 to 150
CC1(C)CCC(CN2CCN(c3ccc(C(=O)NS(=O)(=O)c4ccc(N[C@H](CCN5CCN(CCCNc6ccc7c(c6)C(=O)N(C6CCC(=O)NC6=O)C7=O)CC5)CSc5ccccc5)c(S(=O)(=O)C(F)(F)F)c4)cc3)CC2)=C(C23CC(C(F)F)(C2)C3)C1 (stereo partly drawn) [Example 12, 4-[4-[[2-[3-(difluoromethyl)-1-bicyclo[1.1.1]pentanyl]-4,4-dimethyl-cyclohexen-1-yl]methyl]piperazin-1-yl]-N-[4-[[(1R)-3-[4-[3-[[2-(2,6-dioxo-3-piperidyl)-1,3-dioxo-isoindolin-5-yl]amino]propyl]piperazin-1-yl]-1-(phenylsulfanylmethyl)propyl]amino]-3-(trifluoromethylsulfonyl)phenyl]sulfonyl-benzamide] | ≤ 50
CC1(C)CCC(CN2CCN(c3ccc(C(=O)NS(=O)(=O)c4ccc(N[C@H](CCN5CCN(CCCCNc6ccc7c(c6)C(=O)N(C6CCC(=O)NC6=O)C7=O)CC5)CSc5ccccc5)c(S(=O)(=O)C(F)(F)F)c4)cc3)CC2)=C(C23CC(C(F)F)(C2)C3)C1 (stereo partly drawn) [Example 13, 4-[4-[[2-[3-(difluoromethyl)-1-bicyclo[1.1.1]pentanyl]-4,4-dimethyl-cyclohexen-1-yl]methyl]piperazin-1-yl]-N-[4-[[(1R)-3-[4-[4-[[2-(2,6-dioxo-3-piperidyl)-1,3-dioxo-isoindolin-5-yl]amino]butyl]piperazin-1-yl]-1-(phenylsulfanylmethyl)propyl]amino]-3-(trifluoromethylsulfonyl)phenyl]sulfonyl-benzamide] | ≤ 50

The next lines start with the values.

IC50 [nM] | SMILES
≤ 50 | CC1(C)CCC(CN2CCN(c3ccc(C(=O)NS(=O)(=O)c4ccc(N[C@H](CCN5CCN(CCCCCNc6cccc7c6C(=O)N(C6CCC(=O)NC6=O)C7=O)CC5)CSc5ccccc5)c(S(=O)(=O)C(F)(F)F)c4)cc3)CC2)=C(C23CC(C(F)F)(C2)C3)C1 (stereo partly drawn) [Example 2, 4-(4-((2-(3-(difluoromethyl)bicyclo[1.1.1]pentan-1-yl)-4,4-dimethylcyclohex-1-en-1-yl)methyl)piperazin-1-yl)-N-((4-(((2R)-4-(4-(5-((2-(2,6-dioxopiperidin-3-yl)-1,3-dioxoisoindolin-4-yl)amino)pentyl)piperazin-1-yl)-1-(phenylthio)butan-2-yl)amino) ((trifluoromethyl)sulfonyl)phenyl)sulfonyl)benzamide]
≤ 50 | CC1(C)CCC(CN2CCN(c3ccc(C(=O)NS(=O)(=O)c4ccc(N[C@H](CCN5CCN(CCCNc6cccc7c6C(=O)N(C6CCC(=O)NC6=O)C7=O)CC5)CSc5ccccc5)c(S(=O)(=O)C(F)(F)F)c4)cc3)CC2)=C(C23CC(C(F)F)(C2)C3)C1 (stereo partly drawn) [Example 5, 4-[4-[[2-[3-(difluoromethyl)-1-bicyclo [1.1.1]pentanyl]-4,4-dimethyl-cyclohexen-1-yl]methyl]piperazin-1-yl]-N-[4-[[(1R)-3-[4-[3-[[2-(2,6-dioxo-3-piperidyl)-1,3-dioxo-isoindolin-4-yl]amino]propyl]piperazin-1-yl]-1-(phenylsulfanylmethyl)propyl]amino]-3-(trifluoromethylsulfonyl)phenyl]sulfonyl-benzamide]
50 to 150 | CC1(C)CCC(CN2CCN(c3ccc(C(=O)NS(=O)(=O)c4ccc(N[C@H](CCN5CCN(CCCCCNc6cccc7c6C(=O)N(C6CCC(=O)NC6=O)C7=O)CC5)CSc5ccccc5)c(S(=O)(=O)C(F)(F)F)c4)cc3)CC2)=C(C23CC(C)(C2)C3)C1 (stereo partly drawn) [Example 7, 4-(4-((4,4-dimethyl-2-(3-methylbicyclo[1.1.1]pentan-1-yl)cyclohex-1-en-1-yl)methyl)piperazin-1-yl)-N-((4-(((2R)-4-(4-(5-((2-(2,6-dioxopiperidin-3-yl)-1,3-dioxoisoindolin-4-yl)amino)pentyl)piperazin-1-yl)-1-(phenylthio)butan-2-yl)amino)-3-((trifluoromethyl)sulfonyl)phenyl)sulfonyl)benzamide]
≤ 50 | CC1(C)CCC(CN2CCN(c3ccc(C(=O)NS(=O)(=O)c4ccc(N[C@H](CCN5CCN(CCCCNc6cccc7c6C(=O)N(C6CCC(=O)NC6=O)C7=O)CC5)CSc5ccccc5)c(S(=O)(=O)C(F)(F)F)c4)cc3)CC2)=C(C23CC(C(F)F)(C2)C3)C1 (stereo partly drawn) [Example 8, 4-[4-[[2-[3-(difluoromethyl)-1-bicyclo[1.1.1]pentanyl]-4,4-dimethyl-cyclohexen-1-yl]methyl]piperazin-1-yl]-N-[4-[[(1R)-3-[4-[4-[[2-(2,6-dioxo-3-piperidyl)-1,3-dioxo-isoindolin-4-yl]amino]butyl]piperazin-1-yl]-1-(phenylsulfanylmethyl)propyl]amino]-3-(trifluoromethylsulfonyl)phenyl]sulfonyl-benzamide]
50 to 150 | CCC12CC(C3=C(CN4CCN(c5ccc(C(=O)NS(=O)(=O)c6ccc(N[C@H](CCN7CCN(CCCCCNc8cccc9c8C(=O)N(C8CCC(=O)NC8=O)C9=O)CC7)CSc7ccccc7)c(S(=O)(=O)C(F)(F)F)c6)cc5)CC4)CCC(C)(C)C3)(C1)C2 (stereo partly drawn) [Example 10, N-((4-(((2R)-4-(4-(5-((2-(2,6-dioxopiperidin-3-yl)-1,3-dioxoisoindolin-4-yl)amino)pentyl)piperazin-1-yl)-1-(phenylthio)butan-2-yl)amino)-3-((trifluoromethyl)sulfonyl)phenyl)sulfonyl)-4-(4-((2-(3-ethylbicyclo[1.1.1]pentan-1-yl)-4,4-dimethylcyclohex-1-en-1-yl)methyl)piperazin-1-yl)benzamide]
≥ 150 | CC1(C)CCC(CN2CCN(c3ccc(C(=O)NS(=O)(=O)c4ccc(N[C@H](CCN5CCN(CCCCCCNc6cccc7c6C(=O)N(C6CCC(=O)NC6=O)C7=O)CC5)CSc5ccccc5)c(S(=O)(=O)C(F)(F)F)c4)cc3)CC2)=C(C23CC(C(F)F)(C2)C3)C1 (stereo partly drawn) [Example 11, 4-[4-[[2-[3-(difluoromethyl)-1-bicyclo[1.1.1]pentanyl]-4,4-dimethyl-cyclohexen-1-yl]methyl]piperazin-1-yl]-N-[4-[[(1R)-3-[4-[6-[[2-(2,6-dioxo-3-piperidyl)-1,3-dioxo-isoindolin-4-yl]amino]hexyl]piperazin-1-yl]-1-(phenylsulfanylmethyl)propyl]amino]-3-(trifluoromethylsulfonyl)phenyl]sulfonyl-benzamide]
